Test results published in US20150225341A1, “PHARMACEUTICALLY ACCEPTABLE SALTS OF THYMODEPRESSIN AND PROCESSES FOR THEIR MANUFACTURE” (APOTEX TECHNOLOGIES INC., priority 2014, published 2015).
Entries after “also recorded” stand apart in the source; their conditions may differ.

What was measured:
Format in all cases: physicochemical
[1] = Percent crystallinity by X-ray powder diffraction
Description: The overall crystallinity measured by means of the XRPD technique provides additional helpful information for pharmaceutical materials that contain some amorphous material formed during synthetic procedure. It is also a valuable measure for control of long-term changes in the crystalline materials. Although not related to any structural and compositional features, the measured “percent crystallinity” may be a good indicator for the stability of a particular material as a function of time.
The percent crystallinity is commonly measured as a ratio between the diffraction portion from the crystalline part of the sample, IC, and the total diffraction from the same sample, IC+B. The values of CC can be obtained after an appropriate subtraction of the scattering portion from the background, IB.
For such kind of analyses, the diffraction is measured as total area under the profile of: • the whole pattern as it is collected (one may correct for the air scattering)—ITOTAL. • the peaks only (IC) after subtraction of the background (correction for the air scattering), • the background only with correction for air scattering—(IB).
However, in this study, due to the technical problems with the D5000 point-detector diffraction system, all the samples were analyzed on a D8 system, equipped with an area, 2D detector, and the above-mentioned approach could not be applied. Therefore, another technique has been developed for measuring the crystallinity of samples analyzed on such system. Only a narrow part of the 2D diffraction image is chosen with a single peak at the centre and a neighbour area where the background will be measured.
All samples were measured for calculation of their crystallinity using a narrow range of 21°-25° with a strongest reflection at […]. The background was subtracted as linear, and an empirical correlation coefficient of 2.5 was applied.

[2] = Speciation plot calculation of solution pH (FIG. 5, from experimentally determined pKas); conditions: according to speciation plot FIG. 5; 0.5 M solution
Description: A pharmaceutically acceptable salt of a drug substance is one that is chemically stable and can be used in a pharmaceutical composition. Unlike simple aromatic hydrocarbons, thymodepressin is a dipeptide with multi-functional groups. The dipeptide D-isoglutamyl-D-tryptophan has an alpha amine, two carboxylic acids and an indole nitrogen within the same molecule. An ideal salt should be one that has a solution pH close to about 7 and in the low basic pH range. Through investigations in our laboratory, in the search for a novel salt to address the shortcomings of the disodium salt of D-isoglutamyl-D-tryptophan, the speciation plot (FIG. 5) was used to determine salts with ideal solution pH and solubility that are suitable for pharmaceutical formulations. FIG. 5 is a speciation plot of H-D-iGlu-D-Trp-OH from pH 0 to 12 using experimentally determined pKas. In FIG. 5, LH2=H-D-iGlu-D-Trp-OH, LH=mono carboxylic acid salt, L=dicarboxylic acid salt, and LH3=acid addition salt of H-D-iGlu-D-Trp-OH. The X axis provides the pH of the solution, whereas the Y axis reports the amount of the species present at a particular pH. From our practical experience, we use 6 ml of water per gm of H-D-iGlu-D-Trp-OH for isolation purposes, which corresponds to a concentration of 0.5 M solution.
According to the speciation plot calculation shown in FIG. 5, the diacid form has a pH of about 2.7 to about 3 in solution. The metal salt of formula I wherein M is potassium or lithium; the divalent salt of formula II wherein B is calcium or magnesium has a solution pH close to about 7.
We have applied the speciation plot (FIG. 5) to compute the pH range of the salt forms of the dipeptide H-D-iGlu-D-Trp-OH. […] This is particular ideal for liquid formulation, sublingual tablets, nasal drops and sprays.

[3] = Hygroscopicity of the solid salt in air (laboratory observation); conditions: solid (freeze-dried / amorphous) salt

With “calcium salt of D-isoglutamyl-D-tryptophan (1:2) [Example 7]” the “% crystallinity” value ([1]; XRPD, D8 system with 2D detector, not absolute values, listed as Example 8) was 18-20%, the “% crystallinity” value ([1]; XRPD, D8 system with 2D detector, not absolute values, listed as H-D-iGlu-D-Trp-OH calcium (2:1)) was “less than 67%” and the “% crystallinity” value ([1]; XRPD, D8 system with 2D detector; not absolute values; listed as calcium salt of thymodepressin [1:2)) was at most 67%. For the same substance, the pH in solution [2] was “about 7”.
With “disodium salt of D-isoglutamyl-D-tryptophan” the “hygroscopicity of the solid” value [3] was “extremely hygroscopic turning into a gel in a matter of minutes in air; also recorded: hygroscopic and very difficult to handle”, the “hygroscopicity of the solid” value ([3]; listed as disodium salt) was “extremely hygroscopic and very difficult to weigh” and the pH in solution [2] was “above 9.0”.
For “lithium salt of D-isoglutamyl-D-tryptophan (1:1) [Example 3A]”, the pH in solution [2] was “about 7”.
With “magnesium salt of D-isoglutamyl-D-tryptophan (1:2) [Example 5]” the pH in solution [2] was “about 7”.
With “potassium salt of D-isoglutamyl-D-tryptophan (1:1) [Example 1]” the pH in solution [2] was “about 7”.
